Measured values from US20240092784A1, “CONDENSED HETEROCYCLIC COMPOUND” (NISSAN CHEMICAL CORPORATION, priority 2020, published 2024).
Where a name gives a salt, the structure may show the parent alone.

biological target: human SPR (Homo sapiens (Human), UniProt P35270); assay: Evaluation Example 2: Measurement of human SPR inhibitory activity (seven concentrations, sepiapterin absorbance at 420 nm); format: biochemical; conditions: Evaluation Example 2, seven concentrations 0.14 nM to 100 nM, 240 minutes at room temperature, read-out: IC50
Sequence (P35270 whole entry): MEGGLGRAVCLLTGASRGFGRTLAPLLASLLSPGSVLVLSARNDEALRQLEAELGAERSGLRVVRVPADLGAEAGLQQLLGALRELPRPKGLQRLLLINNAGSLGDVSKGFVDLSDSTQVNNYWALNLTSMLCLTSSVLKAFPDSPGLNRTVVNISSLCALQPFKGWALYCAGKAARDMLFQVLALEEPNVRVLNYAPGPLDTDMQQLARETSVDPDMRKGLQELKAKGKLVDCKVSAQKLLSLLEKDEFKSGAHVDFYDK
Experimental: Human SPR was prepared as described below. The full-length human SPR (1-261) cDNA was purchased from Eurofins Genomics as an artificially synthesized plasmid containing a DNA sequence optimized for the E. coli expression system so that the sequence of the expressed protein after transcription and translation matches the sequence described in UniprotKB (P35270).
Linearized insert and vector were prepared by PCR using primers designed for amplification of human SPR cDNA and primers designed to contain the thrombin recognition sequence of pET28a (Novagen) and a polyhistidine tag. Cloning was performed using In-Fusion (registered trademark) HD Cloning Kit (TaKaRa) to thereby construct a human SPR expression plasmid. The resultant human SPR expression plasmid was transformed into BL21 (DE3) competent cells (INVITROGEN).
The cells were inoculated into LB medium (1% triptone, 0.5% yeast extract, 1% sodium chloride) containing […] of kanamycin, and then precultured at 37° C. overnight. The precultured cells were inoculated into TB medium (1.2% triptone, 2.4% yeast extract, 9.4% dipotassium hydrogen phosphate, 2.2% potassium dihydrogen phosphate, 0.8% glycerin) containing […] of kanamycin, and the cultured at 37° C., to thereby induce SPR expression with 0.5 mM IPTG for four hours. After the induction, the cells were collected by centrifugation at 6,000 G for 30 minutes and washed with PBS, and the washing was discarded. The washed cells were suspended in buffer solution A (20 mM MES, pH 6.5, 100 mM sodium chloride, 1 mM DTT, 5 mM imidazole). Subsequently, the cell suspension was subjected to ultrasonic treatment to thereby homogenize the cells. The cell homogenate was clarified by centrifugation at 30,000 G for 60 minutes and then filtered with a […]. The filtrate was allowed to pass through HisTrapFF 5 mL column (GE Healthcare). The resin was washed with buffer A, and then gradient elution was performed with buffer B (20 mM MES, pH 6.5, 100 mM sodium chloride, 1 mM DTT, 500 mM imidazole). Thrombin was added to a fraction containing the SPR protein, and the mixture was dialyzed in buffer A overnight, to thereby cleave the tag. After removal of the thrombin by with Benzamidine Sepharose 4 FF (GE Healthcare), the resultant product was allowed to pass through the HisTrapFF 5 mL column, to thereby remove the tag, followed by concentration with Amicon Ultra 10,000 NMWL (Merck Millipore). The concentrate was purified by gel filtration using HiLoad 16/60 Superdex 75 pg (GE Healthcare) equilibrated with buffer C (20 mM MES, pH 6.5, 100 mM sodium chloride, 1 mM DTT). The fraction containing SPR protein was concentrated and then cryopreserved at −80° C.
Human SPR inhibitory activity was measured by using a 384-well low adsorption clear plate (Greiner) with buffer D containing 100 mM Tris-HCl (pH 7.5) (Thermo Fisher Scientific) and 0.01% bovine serum albumin (Sigma). A compound was diluted with DMSO to achieve seven different final concentrations; i.e., 0.14 nM, 0.41 nM, 1.23 nM, 3.7 nM, 11.1 nM, 33 nM, and 100 nM. A 1.5 μL aliquot of the compound solution prepared with DMSO was diluted with 250 μL of buffer D, and the thus-diluted solution was dispensed into the 384-well plate at 20 μL/well. Thereafter, human SPR was diluted with buffer D to 150 ng/mL and then dispensed into the 384-well plate at 20 μL/well. Subsequently, 40 μL of ultrapure water containing 120 μM sepiapterin (produced by the method described in L-Sepiapterin, Heterocycles, 2008, 76, 1329-1335 and WO 2013/168693) and 160 μM NADPH (Nacalai) was added to each well, and then reaction was initiated. The reaction mixture was incubated at room temperature for 240 minutes. Thereafter, in order to determine the amount of sepiapterin, the absorbance at 420 nm was measured by applying the 384-well plate to EnSpire multimode plate reader (Perkin Elmer). The percent inhibition (%) of human SPR by the test compound was calculated by the following formula.

Row | SMILES | IC50 [nM]
1 | CC(C)Cn1c(=O)c(C(=O)NC2CC2)c(O)n2ncc(C(=O)NCc3ccc(F)cc3F)c12 [Synthesis Example 234, N6-Cyclopropyl-N3-(2,4-difluorobenzyl)-7-hydroxy-4-isobutyl-5-oxo-4,5-dihydropyrazolo[1,5-a]pyrimidine-3,6-dicarboxamide] | 1.41
2 | CC(C)Cn1c(=O)c(C(=O)NC2CC2)c(O)n2ncc(C(=O)NCc3ncccc3F)c12 [Synthesis Example 235, N6-Cyclopropyl-N3-((3-fluoropyridin-2-yl)methyl)-7-hydroxy-4-isobutyl-5-oxo-4,5-dihydropyrazolo[1,5-a]pyrimidine-3,6-dicarboxamide] | 0.9
3 | CC(C)Cn1c(=O)c(C(=O)NC2CC2)c(O)n2ncc(/C=C/c3cnccn3)c12 [Synthesis Example 236, (E)-N-Cyclopropyl-7-hydroxy-4-isobutyl-5-oxo-3-(2-(pyrazin-2-yl)vinyl)-4,5-dihydropyrazolo[1,5-a]pyrimidine-6-carboxamide] | 0.97
4 | CC(C)Cn1c(=O)c(C(=O)NC2CC2)c(O)n2ncc(/C=C/C3CCOCC3)c12 [Synthesis Example 237, (E)-N-Cyclopropyl-7-hydroxy-4-isobutyl-5-oxo-3-(2-(tetrahydro-2H-pyran-4-yl)vinyl)-4,5-dihydropyrazolo[1,5-a]pyrimidine-6-carboxamide] | 0.91
5 | Cc1noc(C)c1/C=C/c1cnn2c(O)c(C(=O)NC3CC3)c(=O)n(CC(C)C)c12 [Synthesis Example 238, (E)-N-Cyclopropyl-3-(2-(3,5-dimethylisoxazol-4-yl)vinyl)-7-hydroxy-4-isobutyl-5-oxo-4,5-dihydropyrazolo[1,5-a]pyrimidine-6-carboxamide] | 0.89
6 | CC(C)Cn1c(=O)c(C(=O)NC2CC2)c(O)n2ncc(C3=CCCNC3)c12 [Synthesis Example 239, N-Cyclopropyl-7-hydroxy-4-isobutyl-5-oxo-3-(1,2,5,6-tetrahydropyridin-3-yl)-4,5-dihydropyrazolo[1,5-a]pyrimidine-6-carboxamide hydrochloride] | 0.72
7 | CC(C)Cn1c(=O)c(C(=O)NC2CC2)c(O)n2ncc(/C=C/c3cscn3)c12 [Synthesis Example 240, (E)-N-Cyclopropyl-7-hydroxy-4-isobutyl-5-oxo-3-(2-(thiazol-4-yl)vinyl)-4,5-dihydropyrazolo[1,5-a]pyrimidine-6-carboxamide] | 1.84
8 | CC(C)Cn1c(=O)c(C(=O)NC2CC2)c(O)n2ncc(/C=C/C3CCNCC3)c12 [Synthesis Example 241, (E)-N-Cyclopropyl-7-hydroxy-4-isobutyl-5-oxo-3-(2-(piperidin-4-yl)vinyl)-4,5-dihydropyrazolo[1,5-a]pyrimidine-6-carboxamide hydrochloride] | 1.98
9 | CC(C)Cn1c(=O)c(C(=O)NC2CC2)c(O)n2ncc(/C=C/C3(C)CCOCC3)c12 [Synthesis Example 242, (E)-N-Cyclopropyl-7-hydroxy-4-isobutyl-3-(2-(4-methyltetrahydro-2H-pyran-4-yl)vinyl)-5-oxo-4,5-dihydropyrazolo[1,5-a]pyrimidine-6-carboxamide] | 1.39
10 | CC(C)Cn1c(=O)c(C(=O)NC2CC2)c(O)n2ncc(/C=C/C(C)(C)C)c12 [Synthesis Example 243, (E)-N-Cyclopropyl-3-(3,3-dimethylbut-1-en-1-yl)-7-hydroxy-4-isobutyl-5-oxo-4,5-dihydropyrazolo[1,5-a]pyrimidine-6-carboxamide] | 1.58
11 | CC(=O)N1CCC(/C=C/c2cnn3c(O)c(C(=O)NC4CC4)c(=O)n(CC(C)C)c23)CC1 [Synthesis Example 244, (E)-3-(2-(1-Acetylpiperidin-4-yl)vinyl)-N-cyclopropyl-7-hydroxy-4-isobutyl-5-oxo-4,5-dihydropyrazolo[1,5-a]pyrimidine-6-carboxamide] | 0.99
12 | CC(=O)N1CCC(C)(/C=C/c2cnn3c(O)c(C(=O)NC4CC4)c(=O)n(CC(C)C)c23)CC1 [Synthesis Example 245, (E)-3-(2-(1-Acetyl-4-methylpiperidin-4-yl)vinyl)-N-cyclopropyl-7-hydroxy-4-isobutyl-5-oxo-4,5-dihydropyrazolo[1,5-a]pyrimidine-6-carboxamide] | 1.08
13 | CC(C)Cn1c(=O)c(C(=O)NC2CC2)c(O)n2ncc(/C=C/C3CC3)c12 [Synthesis Example 246, (E)-N-Cyclopropyl-3-(2-cyclopropylvinyl)-7-hydroxy-4-isobutyl-5-oxo-4,5-dihydropyrazolo[1,5-a]pyrimidine-6-carboxamide] | 1.19
14 | CC(C)Cn1c(=O)c(C(=O)NC2CC2)c(O)n2ncc(/C=C/c3cccnc3)c12 [Synthesis Example 247, (E)-N-Cyclopropyl-7-hydroxy-4-isobutyl-5-oxo-3-(2-(pyridin-3-yl)vinyl)-4,5-dihydropyrazolo[1,5-a]pyrimidine-6-carboxamide] | 0.94
15 | CC(C)Cn1c(=O)c(C(=O)NC2CC2)c(O)n2ncc(/C=C/c3ccc(C(F)(F)F)nc3)c12 [Synthesis Example 248, (E)-N-Cyclopropyl-7-hydroxy-4-isobutyl-5-oxo-3-(2-(6-(trifluoromethyl)pyridine-3-yl)vinyl)-4,5-dihydropyrazolo[1,5-a]pyrimidine-6-carboxamide] | 1.89
16 | CC(C)Cn1c(=O)c(C(=O)NC2CC2)c(O)n2ncc(/C=C/C3CCN(CC(F)(F)F)CC3)c12 [Synthesis Example 249, (E)-N-Cyclopropyl-7-hydroxy-4-isobutyl-5-oxo-3-(2-(1-(2,2,2-trifluoroethyl)piperidin-4-yl)vinyl)-4,5-dihydropyrazolo[1,5-a]pyrimidine-6-carboxamide] | 2.69
17 | CC(C)Cn1c(=O)c(C(=O)NC2CC2)c(O)n2ncc(CCc3cccnc3)c12 [Synthesis Example 250, N-Cyclopropyl-7-hydroxy-4-isobutyl-5-oxo-3-(2-(pyridin-3-yl)ethyl)-4,5-dihydropyrazolo[1,5-a]pyrimidine-6-carboxamide] | 0.88
18 | CC(C)Cn1c(=O)c(C(=O)NC2CC2)c(O)n2ncc(CCc3ccc(C(F)(F)F)nc3)c12 [Synthesis Example 251, N-Cyclopropyl-7-hydroxy-4-isobutyl-5-oxo-3-(2-(6-(trifluoromethyl)pyridin-3-yl)ethyl)-4,5-dihydropyrazolo[1,5-a]pyrimidine-6-carboxamide] | 1.74
19 | C/C(=C\c1cnn2c(O)c(C(=O)NC3CC3)c(=O)n(CC(C)C)c12)C(=O)O [Synthesis Example 252, (E)-3-(6-(Cyclopropylcarbamoyl)-7-hydroxy-4-isobutyl-5-oxo-4,5-dihydropyrazolo[1,5-a]pyrimidin-3-yl)-2-methylacrylic acid] | 7.11
20 | C/C(=C\c1cnn2c(O)c(C(=O)NC3CC3)c(=O)n(CC(C)C)c12)C(=O)N1CCC(F)(F)CC1 [Synthesis Example 253, (E)-N-Cyclopropyl-3-(3-(4,4-difluoropiperidin-1-yl)-2-methyl-3-oxoprop-1-en-1-yl)-7-hydroxy-4-isobutyl-5-oxo-4,5-dihydropyrazolo[1,5-a]pyrimidine-6-carboxamide] | 0.85
21 | C/C(=C\c1cnn2c(O)c(C(=O)NC3CC3)c(=O)n(CC(C)C)c12)C(=O)N1CCOCC1 [Synthesis Example 254, (E)-N-Cyclopropyl-7-hydroxy-4-isobutyl-3-(2-methyl-3-morpholino-3-oxoprop-1-en-1-yl)-5-oxo-4,5-dihydropyrazolo[1,5-a]pyrimidine-6-carboxamide] | 0.84
